Data as given in patent publication US20230072683A1, “PYRIDO-PYRIMIDIN DERIVATIVES AND PHARMACEUTICAL COMPOSITION, FOR USE IN PREVENTING OR TREATING PI3 KINASE RELATED DISEASES, COMPRISING SAME AS ACTIVE INGREDIENT” (BORYUNG PHARMACEUTICAL CO., LTD, priority 2019, published 2023).

Experiments:
DNA-PK(h) = DNA-PK(h) (Homo sapiens, UniProt P78527); test: Evaluation of inhibitory activity against DNA-PK (HTRF kinase assay, GST-cMyc-p53 substrate); assay type: biochemical; details: for inhibition at 0.01 µM: compound concentration 0.01 μM, read-out: EXP_VALUE(% Inhibition) DNA-PK(h) 0.01 μM; for inhibition at 0.1 µM: compound concentration 0.1 μM, read-out: EXP_VALUE(% Inhibition) DNA-PK(h) 0.1 μM
Outline: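 p53 Ser15 phosphorylation by human DNA-PK was measured by time-resolved FRET ratio (665/620 nm ×10000) using Eu-labelled anti-phospho-Ser15 and d2 anti-GST antibodies. Substrate GST-cMyc-p53 at 50 μM; Mg/ATP-initiated, 30 min at room temperature, EDTA stop.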

[1] = biological target: PI3K-δ (PI3K(p1108/p857) (h)) (Homo sapiens, UniProt O00329); test: Evaluation of inhibitory activity against PI3K-δ (HTRF kinase assay); assay type: biochemical; details: for inhibition at 0.01 µM: compound concentration 0.01 μM, read-out: EXP_VALUE(% Inhibition) PI3K-δ 0.01 μM; for inhibition at 0.1 µM: compound concentration 0.1 μM, read-out: EXP_VALUE(% Inhibition) PI3K-δ 0.1 μM
PI3K-δ (PI3K(p1108/p857) (h)), sequence (O00329 whole entry, the tested form may be a part): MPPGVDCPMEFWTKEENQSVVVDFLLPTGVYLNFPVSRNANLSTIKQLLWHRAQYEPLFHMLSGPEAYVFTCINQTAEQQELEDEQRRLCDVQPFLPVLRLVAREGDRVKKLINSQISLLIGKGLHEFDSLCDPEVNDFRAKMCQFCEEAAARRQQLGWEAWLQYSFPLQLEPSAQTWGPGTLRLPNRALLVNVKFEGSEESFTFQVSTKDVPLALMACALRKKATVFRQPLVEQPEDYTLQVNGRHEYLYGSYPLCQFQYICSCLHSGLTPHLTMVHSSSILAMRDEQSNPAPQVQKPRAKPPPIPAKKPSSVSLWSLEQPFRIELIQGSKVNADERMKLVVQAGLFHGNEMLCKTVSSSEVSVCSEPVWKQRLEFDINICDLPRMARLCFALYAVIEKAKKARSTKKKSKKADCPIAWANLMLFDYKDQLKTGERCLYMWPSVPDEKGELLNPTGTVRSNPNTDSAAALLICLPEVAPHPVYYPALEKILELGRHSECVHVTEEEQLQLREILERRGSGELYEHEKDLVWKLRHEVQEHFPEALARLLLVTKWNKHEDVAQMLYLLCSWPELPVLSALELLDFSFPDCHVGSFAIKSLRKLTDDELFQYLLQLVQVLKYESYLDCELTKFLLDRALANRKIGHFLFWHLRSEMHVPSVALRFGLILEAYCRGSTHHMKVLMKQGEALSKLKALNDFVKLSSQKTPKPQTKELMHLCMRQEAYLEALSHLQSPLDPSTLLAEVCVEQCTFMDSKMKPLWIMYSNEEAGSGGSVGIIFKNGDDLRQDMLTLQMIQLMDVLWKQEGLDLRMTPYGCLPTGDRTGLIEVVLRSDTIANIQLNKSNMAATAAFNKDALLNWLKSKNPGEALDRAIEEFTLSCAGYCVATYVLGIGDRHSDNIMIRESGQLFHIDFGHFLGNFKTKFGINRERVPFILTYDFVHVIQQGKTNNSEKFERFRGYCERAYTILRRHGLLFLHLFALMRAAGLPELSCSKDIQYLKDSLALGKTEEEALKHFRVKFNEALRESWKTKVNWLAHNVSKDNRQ
PI3K-δ (PI3K(p1108/p857) (h)), sequence (P27986 whole entry partner, the tested form may be a part): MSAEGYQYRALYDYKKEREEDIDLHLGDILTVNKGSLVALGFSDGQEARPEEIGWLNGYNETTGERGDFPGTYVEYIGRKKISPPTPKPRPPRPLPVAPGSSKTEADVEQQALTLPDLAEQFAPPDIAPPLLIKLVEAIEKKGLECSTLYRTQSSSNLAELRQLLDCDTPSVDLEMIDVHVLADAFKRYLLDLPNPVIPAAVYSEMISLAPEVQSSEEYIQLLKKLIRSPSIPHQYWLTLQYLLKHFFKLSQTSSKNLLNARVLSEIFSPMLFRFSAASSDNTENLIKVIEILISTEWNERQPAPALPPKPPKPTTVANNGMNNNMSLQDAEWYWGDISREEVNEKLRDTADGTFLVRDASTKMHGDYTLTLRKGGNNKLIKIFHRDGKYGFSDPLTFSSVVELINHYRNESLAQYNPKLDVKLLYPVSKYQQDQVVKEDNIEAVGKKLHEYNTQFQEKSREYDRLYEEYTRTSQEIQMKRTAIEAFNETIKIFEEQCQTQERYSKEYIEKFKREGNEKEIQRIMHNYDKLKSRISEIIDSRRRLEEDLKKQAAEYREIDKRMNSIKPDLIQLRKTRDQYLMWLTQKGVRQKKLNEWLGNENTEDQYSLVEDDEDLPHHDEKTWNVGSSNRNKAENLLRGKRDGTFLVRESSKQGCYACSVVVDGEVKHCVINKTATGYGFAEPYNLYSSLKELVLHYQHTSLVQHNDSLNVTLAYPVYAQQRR
Outline: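 HTRF read-out (665/620 nm ratio ×10000) used Eu-labelled anti-GST, GST-tagged GRP1 PH domain and streptavidin-allophycocyanin after EDTA/PIP3 stop.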

| inhibition at 0.01 µM (DNA-PK(h)) [%] | inhibition at 0.01 µM [1] [%] | inhibition at 0.1 µM (DNA-PK(h)) [%] | inhibition at 0.1 µM [1] [%] | SMILES |
| --- | --- | --- | --- | --- |
| 63 | 92 |  |  | CC(=O)c1cccc2c(Cl)c([C@H](C)Nc3ncnc4[nH]ccc(=O)c34)n(-c3ccccc3)c(=O)c12 [Example 267, (S)-4-((1-(8-acetyl-4-chloro-1-oxo-2-phenyl-1,2-dihydroisoquinolin-3-yl)ethyl)amino)pyrido[2,3-d]pyrimidin-5(8H)-one] |
| 27 | 76 |  |  | CCCC(=O)c1cccc2c(Cl)c([C@H](C)Nc3ncnc4[nH]ccc(=O)c34)n(-c3ccccc3)c(=O)c12 [Example 268, (S)-4-((1-(8-butyryl-4-chloro-1-oxo-2-phenyl-1,2-dihydroisoquinolin-3-yl)ethyl)amino)pyrido[2,3-d]pyrimidin-5(8H)-one] |
| 26 | 37 |  |  | C[C@H](Nc1ncnc2[nH]ccc(=O)c12)c1c(Cl)c2cccc(C(=O)C3CC3)c2c(=O)n1-c1ccccc1 [Example 269, (S)-4-((1-(4-chloro-8-(cyclopropanecarbonyl)-1-oxo-2-phenyl-1,2-dihydroisoquinolin-3-yl)ethyl)amino)pyrido[2,3-d]pyrimidin-5(8H)-one] |
| 19 | 60 |  |  | C[C@H](Nc1ncnc2[nH]ccc(=O)c12)c1c(Cl)c2cccc(C=O)c2c(=O)n1-c1ccccc1 [Example 271, (S)-4-chloro-1-oxo-3-(1-((5-oxo-5,8-dihydropyrido[2,3-d]pyrimidin-4-yl)amino)ethyl)-2-phenyl-1,2-dihydroisoquinolin-8-carbaldehyde] |
| 36 | 44 |  |  | C[C@H](Nc1ncnc2[nH]ccc(=O)c12)c1c(Cl)c2cccc(/C=N/O)c2c(=O)n1-c1ccccc1 [Example 273, (S,E)-4-chloro-1-oxo-3-(1-((5-oxo-5,8-dihydropyrido[2,3-d]pyrimidin-4-yl)amino)ethyl)-2-phenyl-1,2-dihydroisoquinoline-8-carbaldehyde oxime] |
| 18 | 99 |  |  | CNC(=O)c1cccc2c(Cl)c([C@H](C)Nc3ncnc4[nH]ccc(=O)c34)n(-c3ccccc3)c(=O)c12 [Example 274, (S)-4-chloro-N-methyl-1-oxo-3-(1-((5-oxo-5,8-dihydropyrido[2,3-d]pyrimidin-4-yl)amino)ethyl)-2-phenyl-1,2-dihydroisoquinoline-8-carboxamide] |
| 8 | 104 |  |  | CCCNC(=O)c1cccc2c(Cl)c([C@H](C)Nc3ncnc4[nH]ccc(=O)c34)n(-c3ccccc3)c(=O)c12 [Example 275, (S)-4-chloro-1-oxo-3-(1-((5-oxo-5,8-dihydropyrido[2,3-d]pyrimidin-4-yl)amino)ethyl)-2-phenyl-N-propyl-1,2-dihydroisoquinoline-8-carboxamide] |
| 29 | 96 |  |  | C[C@H](Nc1ncnc2[nH]ccc(=O)c12)c1c(Cl)c2cccc(C(=O)NC3COC3)c2c(=O)n1-c1ccccc1 [Example 276, (S)-4-chloro-N-(oxetan-3-yl)-1-oxo-3-(1-((5-oxo-5,8-dihydropyrido[2,3-d]pyrimidin-4-yl)amino)ethyl)-2-phenyl-1,2-dihydroisoquinoline-8-carboxamide] |
| 8 | 99 |  |  | C[C@H](Nc1ncnc2[nH]ccc(=O)c12)c1c(Cl)c2cccc(C(=O)NC3CCC3)c2c(=O)n1-c1ccccc1 [Example 277, (S)-4-chloro-N-cyclobutyl-1-oxo-3-(1-((5-oxo-5,8-dihydropyrido[2,3-d]pyrimidin-4-yl)amino)ethyl)-2-phenyl-1,2-dihydroisoquinoline-8-carboxamide] |
| 6 | 104 |  |  | C[C@H](Nc1ncnc2[nH]ccc(=O)c12)c1c(Cl)c2cccc(C(=O)NCc3cccs3)c2c(=O)n1-c1ccccc1 [Example 278, (S)-4-chloro-1-oxo-3-(1-((5-oxo-5,8-dihydropyrido[2,3-d]pyrimidin-4-yl)amino)ethyl)-2-phenyl-N-(thiophen-2-ylmethyl)-1,2-dihydroisoquinoline-8-carboxamide] |
| 11 | 105 |  |  | C[C@H](Nc1ncnc2[nH]ccc(=O)c12)c1c(Cl)c2cccc(C(=O)NCc3ccco3)c2c(=O)n1-c1ccccc1 [Example 279, (S)-4-chloro-N-(furan-2-ylmethyl)-1-oxo-3-(1-((5-oxo-5,8-dihydropyrido[2,3-d]pyrimidin-4-yl)amino)ethyl)-2-phenyl-1,2-dihydroisoquinoline-8-carboxamide] |
| 15 | 91 |  |  | C[C@H](Nc1ncnc2[nH]ccc(=O)c12)c1c(Cl)c2cccc(C(=O)NCc3ccccc3)c2c(=O)n1-c1ccccc1 [Example 280, (S)—N-benzyl-4-chloro-1-oxo-3-(1-((5-oxo-5,8-dihydropyrido[2,3-d]pyrimidin-4-yl)amino)ethyl)-2-phenyl-1,2-dihydroisoquinoline-8-carboxamide] |
| 13 | 75 |  |  | C[C@H](Nc1ncnc2[nH]ccc(=O)c12)c1c(Cl)c2cccc(C(=O)NCCN3CCOCC3)c2c(=O)n1-c1ccccc1 [Example 281, (S)-4-chloro-N-(2-morpholinoethyl)-1-oxo-3-(1-((5-oxo-5,8-dihydropyrido[2,3-d]pyrimidin-4-yl)amino)ethyl)-2-phenyl-1,2-dihydroisoquinoline-8-carboxamide] |
| 14 | 79 |  |  | CC(C)NC(=O)c1cccc2c(Cl)c([C@H](C)Nc3ncnc4[nH]ccc(=O)c34)n(-c3ccccc3)c(=O)c12 [Example 282, (S)-4-chloro-N-isopropyl-1-oxo-3-(1-((5-oxo-5,8-dihydropyrido[2,3-d]pyrimidin-4-yl)amino)ethyl)-2-phenyl-1,2-dihydroisoquinoline-8-carboxamide] |
| 12 | 81 |  |  | C[C@H](Nc1ncnc2[nH]ccc(=O)c12)c1c(Cl)c2cccc(C(=O)NCC3CC3)c2c(=O)n1-c1ccccc1 [Example 283, (S)-4-chloro-N-(cyclopropylmethyl)-1-oxo-3-(1-((5-oxo-5,8-dihydropyrido[2,3-d]pyrimidin-4-yl)amino)ethyl)-2-phenyl-1,2-dihydroisoquinoline-8-carboxamide] |
| 10 | 25 |  |  | C[C@H](Nc1ncnc2[nH]ccc(=O)c12)c1c(Cl)c2cccc(C(=O)NC(C)(C)CO)c2c(=O)n1-c1ccccc1 [Example 284, (S)-4-chloro-N-(1-hydroxy-2-methylpropan-2-yl)-1-oxo-3-(1-((5-oxo-5,8-dihydropyrido[2,3-d]pyrimidin-4-yl)amino)ethyl)-2-phenyl-1,2-dihydroisoquinoline-8-carboxamide] |
| 15 | 22 |  |  | C[C@H](Nc1ncnc2[nH]ccc(=O)c12)c1c(Cl)c2cccc(C(=O)NC(C)(C)C)c2c(=O)n1-c1ccccc1 [Example 285, (S)—N-(tert-butyl)-4-chloro-1-oxo-3-(1-((5-oxo-5,8-dihydropyrido[2,3-d]pyrimidin-4-yl)amino)ethyl)-2-phenyl-1,2-dihydroisoquinoline-8-carboxamide] |
| 23 | 52 |  |  | C[C@H](Nc1ncnc2[nH]ccc(=O)c12)c1c(Cl)c2cccc(C(=O)N3CCOCC3)c2c(=O)n1-c1ccccc1 [Example 286, (S)-4-((1-(4-chloro-8-(morpholine-4-carbonyl)-1-oxo-2-phenyl-1,2-dihydroisoquinolin-3-yl)ethyl)amino)pyrido[2,3-d]pyrimidin-5(8H)-one] |
| 28 | 38 |  |  | C[C@H](Nc1ncnc2[nH]ccc(=O)c12)c1c(Cl)c2cccc(-c3ncc[nH]3)c2c(=O)n1-c1ccccc1 [Example 287, (S)-4-((1-(4-chloro-8-(1H-imidazol-2-yl)-1-oxo-2-phenyl-1,2-dihydroisoquinolin-3-yl)ethyl)amino)pyrido[2,3-d]pyrimidin-5(8H)-one] |
| 8 | 28 |  |  | Cc1nc(-c2cccc3c(Cl)c([C@H](C)Nc4ncnc5[nH]ccc(=O)c45)n(-c4ccccc4)c(=O)c23)[nH]c1C [Example 288, (S)-4-((1-(4-chloro-8-(4,5-dimethyl-1H-imidazol-2-yl)-1-oxo-2-phenyl-1,2-dihydroisoquinolin-3-yl)ethyl)amino)pyrido[2,3-d]pyrimidin-5(8H)-one] |
| 27 | 10 |  |  | C[C@H](Nc1ncnc2[nH]ccc(=O)c12)c1c(Cl)c2cccc(C3=NC(C)(C)CO3)c2c(=O)n1-c1ccccc1 [Example 289, (S)-4-((1-(4-chloro-8-(4,4-dimethyl-4,5-dihydrooxazol-2-yl)-1-oxo-2-phenyl-1,2-dihydroisoquinolin-3-yl)ethyl)amino)pyrido[2,3-d]pyrimidin-5(8H)-one] |
| 39 | 80 | 76 | 102 | C[C@H](Nc1ncnc2[nH]ccc(=O)c12)c1c(Cl)c2cccc(C(=O)O)c2c(=O)n1-c1ccccc1 [Example 290, (S)-4-chloro-1-oxo-3-(1-((5-oxo-5,8-dihydropyrido[2,3-d]pyrimidin-4-yl)amino)ethyl)-2-phenyl-1,2-dihydroisoquinoline-8-carboxylic acid] |
| 31 | 91 | 78 | 101 | C[C@H](Nc1ncnc2[nH]ccc(=O)c12)c1c(Cl)c2cccc(C(N)=O)c2c(=O)n1-c1ccccc1 [Example 291, (S)-4-chloro-1-oxo-3-(1-((5-oxo-5,8-dihydropyrido[2,3-d]pyrimidin-4-yl)amino)ethyl)-2-phenyl-1,2-dihydroisoquinoline-8-carboxamide] |
